Nine compounds from ChEMBL document CHEMBL1201862, “PubChem BioAssay data set” (2004) can be followed below.

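Five compound concentrations were applied to cells in 96-well plates for 48 hours; endpoints were derived by simple linear interpolation of the resulting dose-response curve. GI50 is the concentration that inhibits growth by half.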 Active and inactive are the calls of the source. Rule as the data show it: active = GI50 up to about 1.1 µM and inactive = higher. Bounds are passed on as bounds.

Among the test systems are CCRF-CEM; HCC 2998; HCT-116; HOP-62; Malme-3M; NCI-H460; OVCAR-3; OVCAR-4; SNB-75; TK-10; UACC-257; UO-31; DU-145; LOX IMVI; NCI-H23; OVCAR-5; RXF 393; UACC-62; NCI/ADR-RES.
Common to all, as to assay: growth of human tumour cells (NCI), 48 h

Take `C=C=C[P+](c1ccccc1)(c1ccccc1)c1ccccc1`: the GI50 was 2.94 µM (inactive) with CCRF-CEM; 42.6 µM (inactive) in the test on HCC 2998; 3.37 µM (inactive) with HCT-116; 53.1 µM (inactive) in the test on HOP-62; 13.2 µM (inactive) with Malme-3M; 18.2 µM (inactive) with NCI-H460. Also, the GI50 in the test with OVCAR-3 is 5.57 µM (inactive); in the test with OVCAR-4, 21.9 µM (inactive); in the test on SNB-75, 8.79 µM (inactive); in the test on TK-10 it was 26.2 µM (inactive); with UACC-257, 7.06 µM (inactive); in the test with UO-31, 35.2 µM (inactive).
With `Clc1sc(Cl)c2c1[C@@H](Cl)C[C@@H]2Br`, the GI50 was 33.3 µM (inactive) in the test with CCRF-CEM; > 100 µM (inactive) in the test with DU-145; > 100 µM (inactive) in the test on HCC 2998; > 100 µM (inactive) in the test with HCT-116; > 100 µM (inactive) in the test with HOP-62; 33.8 µM (inactive) with LOX IMVI. The GI50 with Malme-3M is 22.8 µM (inactive); in the test with NCI-H23, 61.4 µM (inactive); with NCI-H460 it was 71.1 µM (inactive); in the test with OVCAR-4, > 100 µM (inactive); with OVCAR-5, > 100 µM (inactive); in the test with RXF 393 it was 78.3 µM (inactive). Besides, the GI50 in the test with SNB-75 is > 100 µM (inactive); in the test on TK-10, > 100 µM (inactive); in the test with UACC-257 it was 70.1 µM (inactive); in the test with UACC-62, 68.2 µM (inactive); in the test on UO-31, > 100 µM (inactive).
For `COc1ccccc1/C=C1\C(=O)N(C(=O)Cc2ccccc2)N=C1C`, the GI50 in the test with CCRF-CEM, in the test with HCC 2998, in the test with HCT-116, in the test on HOP-62, in the test with LOX IMVI and in the test with Malme-3M was > 100 µM (inactive) in each case. Further, the GI50 in the test on NCI-H23, with NCI-H460, with OVCAR-3, in the test with OVCAR-4, with OVCAR-5 and in the test on SNB-75 was > 100 µM (inactive) each time. In addition, the GI50 in the test with TK-10, with UACC-257 and in the test on UO-31 was > 100 µM (inactive) throughout.
`CSc1csc(-c2ccc(-c3ccc(-c4cc(SC)cs4)s3)s2)c1`: the GI50 with CCRF-CEM, in the test with HCC 2998, in the test with HCT-116, in the test on HOP-62, in the test on LOX IMVI and in the test with Malme-3M was > 100 µM (inactive) each time. Also, the GI50 in the test on NCI-H23, with NCI-H460, in the test on NCI/ADR-RES, with OVCAR-3, in the test with OVCAR-4 and in the test on OVCAR-5 was > 100 µM (inactive) each time. The GI50 in the test with SNB-75, in the test with TK-10, with UACC-257, with UACC-62 and in the test on UO-31 was > 100 µM (inactive) throughout.
In the case of `C/C=C(\NC(=O)C(CCCCN)NC(=O)C(C)NC(=O)C1CSC(C)C(NC(=O)C2CSCC(NC(=O)C(C)NC(=O)C(N)C(C)CC)C(=O)NC(CCCCN)C(=O)NC(Cc3ccccc3)C(=O)NC(CC(C)C)C(=O)N2)C(=O)N2CCCC2C(=O)NCC(=O)N1)C(=O)NCC(=O)NC1CSCC2NC(=O)C(Cc3ccc(O)cc3)NC(=O)C(CSC=CNC2=O)NC(=O)C(CC(N)=O)NC(=O)C(Cc2ccccc2)NC1=O` (configuration not stated), the GI50 in the test on CCRF-CEM is > 100 µM (inactive); with HCC 2998, > 100 µM (inactive); with HCT-116, > 100 µM (inactive); in the test with HOP-62, < 0.01 µM (active); in the test on LOX IMVI, > 100 µM (inactive); in the test on NCI-H23 it was > 100 µM (inactive). In addition, the GI50 in the test with NCI-H460 was 75.3 µM (inactive); in the test with OVCAR-3, > 100 µM (inactive); with OVCAR-4, > 100 µM (inactive); in the test on OVCAR-5 it was > 100 µM (inactive); in the test on RXF 393, > 100 µM (inactive); in the test on SNB-75, 20.3 µM (inactive). For the same compound, the GI50 with TK-10 is > 100 µM (inactive); in the test with UACC-62, 37.6 µM (inactive).
For the compound `Nc1nnc(N)n1N`, the GI50 in the test with CCRF-CEM, in the test on HCC 2998, in the test with HCT-116, with HOP-62, in the test on LOX IMVI and with Malme-3M was > 100 µM (inactive) in each case. Also, the GI50 with NCI-H23, with NCI-H460, with OVCAR-4, with OVCAR-5, in the test on RXF 393 and with SNB-75 was > 100 µM (inactive) in each case. The GI50 in the test on TK-10, in the test on UACC-257, in the test on UACC-62 and in the test on UO-31 was > 100 µM (inactive) each time.
As for `COC1C(CN[N+](=O)CC2OC3OC(C)(C)OC3C2OC)OC2OC(C)(C)OC21` (configuration not stated), the GI50 with CCRF-CEM, in the test on HCC 2998, with HCT-116, in the test with HOP-62, with LOX IMVI and in the test on Malme-3M was > 100 µM (inactive) each time. Moreover, the GI50 with NCI-H23, in the test on NCI-H460, in the test on OVCAR-3, in the test on OVCAR-4, with OVCAR-5 and with RXF 393 was > 100 µM (inactive) each time. Also, the GI50 in the test with SNB-75, in the test with TK-10, in the test on UACC-257, in the test on UACC-62 and in the test with UO-31 was > 100 µM (inactive) in each case.
Take `CCOC(=O)Cn1c(=O)n(C)c(=O)c2[nH]cnc21`: the GI50 in the test on CCRF-CEM, with HCT-116, with HOP-62, with Malme-3M, in the test on NCI-H23 and in the test on NCI-H460 was > 100 µM (inactive) each time. Moreover, the GI50 in the test with OVCAR-3, in the test with SNB-75, with TK-10, in the test on UACC-62 and in the test with UO-31 was > 100 µM (inactive) in each case.
On to `CC(C)=CCC[C@](C)(O[C@@H]1O[C@H](CO)[C@@H](O)[C@H](O)[C@H]1O)[C@H]1CC[C@]2(C)[C@@H]1[C@H](O)C[C@@H]1[C@@]3(C)CC[C@H](O)C(C)(C)[C@@H]3[C@@H](O[C@@H]3O[C@H](CO)[C@@H](O)[C@H](O)[C@H]3O)C[C@]12C` [GINSENOSIDE RG1], for which the GI50 in the test with CCRF-CEM, with DU-145, in the test on HCC 2998, with HCT-116, in the test on HOP-62 and in the test with LOX IMVI was > 100 µM (inactive) throughout. The GI50 in the test on Malme-3M, in the test on NCI-H23, in the test on NCI-H460, in the test with OVCAR-3, in the test on OVCAR-4 and with OVCAR-5 was > 100 µM (inactive) throughout. The GI50 in the test on RXF 393, in the test with SNB-75, in the test with TK-10, in the test with UACC-257, with UACC-62 and in the test on UO-31 was > 100 µM (inactive) throughout.
